Tests used:
Experiment in all cases: relative viability (nuclei count vs DMSO), 5 days (fraction); higher = more cells survive
Avagacestat + Decitabine = compound: NC(=O)[C@@H](CCC(F)(F)F)N(Cc1ccc(-c2ncon2)cc1F)S(=O)(=O)c1ccc(Cl)cc1 [Avagacestat] + Nc1ncn([C@H]2C[C@H](O)[C@@H](CO)O2)c(=O)n1 [Decitabine] (partner 2 µM)
Outline: (§1)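 Medians of duplicate plates are given as relative viability. That measure is the nuclei count in treated wells divided by the count in vehicle wells. Counts were taken on 4× images of lung cancer cell lines in 1536-well plates, 5 days after pin-tool dosing the day after seeding with one drug alone or a fixed anchor-drug dose plus five library-drug doses (not always all listed) in √10 steps.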

Avagacestat + Tozasertib = compound: NC(=O)[C@@H](CCC(F)(F)F)N(Cc1ccc(-c2ncon2)cc1F)S(=O)(=O)c1ccc(Cl)cc1 [Avagacestat] + Cc1cc(Nc2cc(N3CCN(C)CC3)nc(Sc3ccc(NC(=O)C4CC4)cc3)n2)n[nH]1 [Tozasertib] (partner 0.1 µM)
Outline: as §1

Avagacestat + Crizotinib = compound: NC(=O)[C@@H](CCC(F)(F)F)N(Cc1ccc(-c2ncon2)cc1F)S(=O)(=O)c1ccc(Cl)cc1 [Avagacestat] + C[C@@H](Oc1cc(-c2cnn(C3CCNCC3)c2)cnc1N)c1c(Cl)ccc(F)c1Cl [Crizotinib] (partner 1 µM)
Outline: as §1

Avagacestat + Lapatinib = compound: NC(=O)[C@@H](CCC(F)(F)F)N(Cc1ccc(-c2ncon2)cc1F)S(=O)(=O)c1ccc(Cl)cc1 [Avagacestat] + CS(=O)(=O)CCNCc1ccc(-c2ccc3ncnc(Nc4ccc(OCc5cccc(F)c5)c(Cl)c4)c3c2)o1 [Lapatinib] (partner 2 µM)
Outline: as §1

| Cell Line | relative viability (Avagacestat + Decitabine; first compound 0.08 µM) | relative viability (Avagacestat + Decitabine; first compound 0.253 µM) | relative viability (Avagacestat + Decitabine; first compound 0.8 µM) | relative viability (Avagacestat + Decitabine; first compound 2.53 µM) | relative viability (Avagacestat + Decitabine; first compound 8 µM) | relative viability (Avagacestat + Tozasertib; first compound 0.08 µM) | relative viability (Avagacestat + Tozasertib; first compound 0.253 µM) | relative viability (Avagacestat + Tozasertib; first compound 0.8 µM) | relative viability (Avagacestat + Tozasertib; first compound 2.53 µM) | relative viability (Avagacestat + Tozasertib; first compound 8 µM) | relative viability (Avagacestat + Crizotinib; first compound 0.08 µM) | relative viability (Avagacestat + Crizotinib; first compound 0.253 µM) | relative viability (Avagacestat + Crizotinib; first compound 0.8 µM) | relative viability (Avagacestat + Crizotinib; first compound 2.53 µM) | relative viability (Avagacestat + Crizotinib; first compound 8 µM) | relative viability (Avagacestat + Lapatinib; first compound 0.08 µM) | relative viability (Avagacestat + Lapatinib; first compound 0.253 µM) | relative viability (Avagacestat + Lapatinib; first compound 0.8 µM) | relative viability (Avagacestat + Lapatinib; first compound 2.53 µM) | relative viability (Avagacestat + Lapatinib; first compound 8 µM) |
| --- | --- | --- | --- | --- | --- | --- | --- | --- | --- | --- | --- | --- | --- | --- | --- | --- | --- | --- | --- | --- |
| HCC-78 | 0.675 | 0.726 | 0.75 | 0.683 | 0.669 | 0.404 | 0.473 | 0.208 | 0.396 | 0.377 | 0.322 | 0.343 | 0.338 | 0.322 | 0.314 | 0.556 | 0.696 | 1.48 | 0.7 | 0.579 |
| HCC-366 | 0.463 | 0.344 | 0.36 | 0.306 | 0.271 | 0.0969 | 0.172 | 0.0909 | 0.0683 | 0.0694 | 0.608 | 0.645 | 0.517 | 0.525 | 0.645 | 1.6 | 1.26 | 1.23 | 1.05 | 1.21 |
| HCC-827 | 0.328 | 0.313 | 0.327 | 0.329 | 0.296 | 0.452 | 0.434 | 0.506 | 0.381 | 0.462 | 0.868 | 0.85 | 0.992 | 1.03 | 0.999 | 0.197 | 0.178 | 0.177 | 0.169 | 0.191 |
| HOP-62 | 0.211 | 0.229 | 0.194 | 0.221 | 0.218 | 0.357 | 0.353 | 0.373 | 0.363 | 0.335 | 0.936 | 1.08 | 0.995 | 1.05 | 1.03 | 1.02 | 0.943 | 0.983 | 0.996 | 1.01 |
| LC-2-ad | 0.837 | 0.839 | 0.867 | 0.833 | 0.776 | 0.453 | 0.384 | 0.427 | 0.197 | 0.367 | 0.548 | 0.367 | 0.458 | 0.435 | 0.391 | 1.04 | 1.16 | 1.03 | 0.996 | 0.867 |
| LCLC-97TM1 | 0.25 | 0.214 | 0.229 | 0.217 | 0.203 | 0.221 | 0.206 | 0.208 | 0.183 | 0.181 | 0.317 | 0.289 | 0.301 | 0.241 | 0.397 | 0.771 | 1.29 | 0.977 | 0.703 | 0.86 |
| LCLC-103H | 0.753 | 0.76 | 0.776 | 0.561 | 0.583 | 0.58 | 0.55 | 0.512 | 0.391 | 0.449 | 1.03 | 1.09 | 1.01 | 0.967 | 0.831 | – | – | – | – | – |
| LK-2 | 0.413 | 0.269 | 0.256 | – | 0.291 | 0.188 | 0.147 | 0.185 | 0.183 | 0.172 | 0.241 | 0.206 | 0.249 | 0.282 | 0.235 | 1.13 | 0.985 | 0.785 | 0.521 | 0.76 |
| LOU-NH91 | 0.868 | 0.812 | 0.84 | 0.807 | 0.79 | 0.621 | 0.63 | 0.648 | 0.609 | 0.624 | 0.739 | 0.725 | 0.732 | 0.73 | 0.761 | 0.816 | 0.788 | 0.831 | 0.692 | 0.776 |
| LU99A | 0.835 | 0.98 | 0.964 | 0.772 | 0.816 | 0.246 | 0.238 | 0.244 | 0.235 | 0.273 | 0.521 | 0.646 | 0.571 | 0.595 | 0.628 | 1.01 | 1.2 | 1.25 | 1.06 | 1.1 |
| NCI-H441 | 0.263 | 0.232 | 0.245 | 0.265 | 0.24 | 0.968 | 0.715 | 0.529 | 0.683 | 0.483 | 0.977 | 0.816 | 0.71 | 1.19 | 0.629 | – | – | – | – | – |
| NCI-H1299 | – | – | – | – | – | – | – | – | – | – | 1.01 | 1.05 | 0.952 | 0.98 | 0.91 | 1.03 | 0.984 | 0.988 | 0.924 | 0.926 |
| NCI-H1395 | 0.719 | 0.717 | 0.67 | 0.692 | 0.681 | 0.826 | 0.758 | 0.752 | 0.64 | 0.715 | – | – | – | – | – | 0.981 | 1.08 | 0.94 | 1.17 | 0.79 |
| NCI-H1563 | – | – | – | – | – | – | – | – | – | – | 0.883 | 0.751 | 0.83 | 0.801 | 0.708 | 0.959 | 0.806 | 0.951 | 0.828 | 0.925 |
| NCI-H1648 | 0.469 | 0.392 | 0.265 | 0.363 | 0.37 | 0.374 | 0.464 | 0.371 | 0.296 | 0.298 | – | – | – | – | – | – | – | – | – | – |
| NCI-H1703 | – | – | – | – | – | – | – | – | – | – | 0.975 | 0.777 | 0.864 | 0.587 | 0.581 | 0.986 | 1.28 | 1.44 | 1.02 | 1.03 |
| NCI-H1792 | 0.722 | 0.561 | 0.618 | 0.487 | 0.426 | – | – | – | – | – | 1.42 | 1.33 | 1.45 | 0.992 | 0.805 | 1.26 | 0.681 | 1.76 | 0.915 | 0.758 |
| NCI-H1793 | 0.504 | 0.532 | 0.508 | 0.472 | 0.496 | 0.307 | 0.329 | 0.655 | 0.239 | 0.3 | – | – | – | – | – | 1.13 | 0.648 | 1.08 | 0.627 | 0.769 |
| NCI-H2228 | – | – | – | – | – | 0.206 | 0.255 | 0.206 | 0.224 | 0.242 | 0.472 | 0.487 | 0.427 | 0.465 | 0.423 | 1.33 | 0.875 | 1.52 | 1.13 | 0.718 |
| NCI-H2342 | 0.738 | 0.686 | 0.706 | 0.695 | 0.742 | 0.593 | 0.48 | 0.57 | 0.493 | 0.527 | – | – | – | – | – | – | – | – | – | – |
